Laboratory results taken from US20100015058A1, “RADIOLABELED BBN-RGD HETERODIMERS FOR CANCER TARGETING” (STANFORD UNIVERSITY, priority 2008, published 2010).

Columns and labels:
[1] = test system: T47D tumor cells; experiment: Cell uptake assay on T47D tumor cells; type: cell-based, human; conditions: 120 min, 37° C., n=3
Experimental: The cells suspensions were collected and measured in a y counter (Packard, Meriden, Conn.). The cell uptake was expressed as the percent added dose (% AD) after decay correction. Experiments were performed twice with triplicate wells.

[2] = Small-animal PET of PC-3 tumor-bearing mice; conditions: mouse, in vivo, iv, total radioactivity; for tissue to tissue ratio at 2 h: T/NT ratio
Experimental: (a) PET scans and image analysis were performed using a micro-PET R4 rodent model scanner (Siemens Medical Solutions) as reported by Li et al., J. Nucl. Med. (2007) 48: 1162-1171 and Wu et al., J Nucl. Med. (2005) 46: 1707-1718, both of which are incorporated herein by reference in their entireties). […] Five-minute static PET images were then acquired at 0.5, 1, and 2 h after injection. The images were reconstructed by a 2-dimensional ordered-subsets expectation maximum (OSEM) algorithm. No attenuation or scatter correction was applied. […] The 5-min static PET scans were then acquired at 1 hr after injection. For each small-animal PET scan, regions of interest (ROIs) were drawn over the tumor, normal tissue, and major organs by using vendor software (ASI Pro 5.2.4.0) on decay-corrected whole-body coronal images. The average radioactivity concentration (accumulation) within a tumor or an organ was obtained from mean pixel values within the multiple ROI volume, which were converted to counts/mL/min using a conversion factor. Assuming a tissue density of 1 g/mL, the ROIs were converted to counts/g/min, and then divided by the administered activity to obtain an imaging ROI-derived percentage injected dose per gram of tissue (% ID/g).
For dynamic PET, 30-min scans (1×30 s, 4×1 min, 1×1.5 min, 4×2 min, 5×3 min; total 15 frames) were started 1 min after injection, and two 5-min static PET images were also acquired at 1 h and 2 h after injection. […] For each small-animal PET scan, regions of interest (ROIs) were drawn over the tumor, normal tissue, and major organs using vendor software ASI Pro 5.2.4.0 on decay-corrected whole-body coronal images. The maximum radioactivity concentrations (accumulation) within a tumor or an organ were obtained from mean pixel values within the multiple ROI volume, and were converted to megabecquerels per milliliter per minute using a conversion factor. These values were then divided by the administered activity to obtain (assuming a tissue density of 1 g/ml) an image ROI-derived percent injected dose per gram (% ID/g).
The images were reconstructed using a 2-dimensional ordered-subsets expectation maximum algorithm without attenuation or scatter correction.
For each small-animal PET scan, regions of interest were drawn over each tumor, over normal tissue, and over major organs using vendor software (ASI Pro, version 5.2.4.0) on decay-corrected whole-body coronal images. The maximum radioactivity concentration (accumulation) within a tumor or an organ was obtained from the mean pixel values within the multiple-region-of-interest volume, which were converted to MBq/mL/min using a conversion factor. Assuming a tissue density of 1 g/mL, the regions of interest were converted to MBq/g/min and then divided by the administered activity to obtain an imaging region-of-interest-derived percentage injected dose (% ID)/g.

[3] = Small-animal PET of MDA-MB-435 tumor-bearing mice; conditions: female, athymic nude, mouse, in vivo, iv, total radioactivity, MDA-MB-435 tumor uptake
Experimental: The MDA-MB435 tumor model was established by orthotopic injections of 5×10^6 cells into the right mammary fat pad of female athymic nude mice. […] The mice were subjected to microPET studies when the tumor volume reached 100-300 mm^3 (2-3 weeks for MDA-MB-435, and 4-5 wk for T47D).
For static PET, 5-min scans were acquired at 30 min, 1 h, and 2 h after injection. For dynamic PET, 30-min scans (1×30 s, 4×1 min, 1×1.5 min, 4×2 min, 5×3 min; total 15 frames) were started 1 min after injection, and two 5-min static PET images were also acquired at 1 h and 2 h after injection. The images were reconstructed using a two-dimensional ordered subsets expectation maximum (OSEM) algorithm and no correction was applied for attenuation or scatter. […] For each small-animal PET scan, regions of interest (ROIs) were drawn over the tumor, normal tissue, and major organs using vendor software ASI Pro 5.2.4.0 on decay-corrected whole-body coronal images. The maximum radioactivity concentrations (accumulation) within a tumor or an organ were obtained from mean pixel values within the multiple ROI volume, and were converted to megabecquerels per milliliter per minute using a conversion factor. These values were then divided by the administered activity to obtain (assuming a tissue density of 1 g/ml) an image ROI-derived percent injected dose per gram (% ID/g).
(§1) Quantification of tumor and major organ activity accumulation in the microPET scans was realized by measuring the regions of interest (ROIs) that encompassing the entire organ on the coronal images.

[4] = MicroPET of T47D tumor-bearing mice; type: in vivo; conditions: female, nude, mouse, T47D tumor, iv, total radioactivity, orthotopic model
From the text: The MDA-MB-231, MDA-MB468, BT474, BT-20, T47D, MCF-7 and MDA-MB435 human breast cancer cell lines were all obtained from the American Type Culture Collection (ATCC) and maintained under standard conditions according to ATCC. The MDA-MB435 tumor model was established by orthotopic injections of 5×10^6 cells into the right mammary fat pad of female athymic nude mice. For T47D tumor model establishment, the female nude mice were first subcutaneously implanted with 60-day release 17β-estradiol pellets (Innovative Research of America, Sarasota, Fla.) in the left neck. One day after the estradiol implantation, 1×10^7 T47D cells were orthotopically injected into the right mammary fat pad of the nude mice. The mice were subjected to microPET studies when the tumor volume reached 100-300 mm^3 (2-3 weeks for MDA-MB-435, and 4-5 wk for T47D).
as §1

[5] = MicroPET blood and normal organ uptake in T47D and MDA-MB-435 tumor-bearing nude mice; conditions: for tissue uptake at 2 h / tissue uptake at 0.5 h / tissue uptake at 1 h: nude, mouse, iv, total radioactivity
From the text: The T47D or MDA-MB435 tumor uptake is expressed as the average of each tracer in four mice, while the normal organ uptake is expressed as the average of each tracer in eight mice (four T47D tumor-bearing mice and four MDA-MB-435 tumor-bearing mice per tracer).

[6] = male, athymic nude, 3.7 MBq, PC-3 tumor uptake
[7] = male, athymic nude, 3.7 MBq, PC-3 tumor uptake, dynamic scan
[8] = male, athymic nude, 3.7 MBq, PC-3 tumor uptake, static scan after dynamic scan

For `CSCC[C@H](NC(=O)[C@H](CC(C)C)NC(=O)[C@H](Cc1c[nH]cn1)NC(=O)CNC(=O)[C@@H](NC(=O)[C@H](C)NC(=O)[C@H](Cc1c[nH]c2ccccc12)NC(=O)[C@H](CCC(N)=O)NC(=O)CCCCCNC(=O)CC[C@H](NC(=O)COCCOCCOCCNC(=O)c1ccc([18F])cc1)C(=O)NCCCC[C@@H]1NC(=O)[C@@H](Cc2ccc(O)cc2)NC(=O)[C@H](CC(=O)O)NC(=O)CNC(=O)[C@H](CCCNC(=N)N)NC1=O)C(C)C)C(N)=O` [^18F-FB-PEG3-RGD-BBN], the “T47D cell uptake value” [1] was 4.25±0.13 % AD, the tissue uptake at 1 h ([2]; male, athymic nude, 10 mg/kg, PC-3 tumor uptake with RGD blocking, 1 h, 3.7 MBq, co-injected c(RGDyK) 10 mg/kg) was 2.19 ± 0.97 %ID/g and the tissue uptake at 0.5 h [2, 6] was 6.35 ± 2.52 %ID/g. The tissue uptake at 1 h [2, 6] was 4.41 ± 0.71 %ID/g, the tissue uptake at 2 h [2, 6] was 2.47 ± 0.81 %ID/g and the tissue uptake at 5 min [2, 7] was 3.54 %ID/g. For the same molecule, the tissue uptake at 0.25 h [2, 7] was 4.86 %ID/g, the tissue uptake at 0.5 h [2, 7] was 5.64 %ID/g and the tissue uptake at 1 h [2, 8] was 4.08 %ID/g. For the same molecule, the tissue uptake at 2 h [2, 8] was 2.88 %ID/g, the tissue uptake at 0.5 h ([2]; male, athymic nude, 3.7 MBq, liver uptake (highest)) was < 2 %ID/g and the tissue uptake at 1 h ([2]; male, athymic nude, PC-3 tumor uptake with BBN blocking, 1 h, 3.7 MBq, co-injected Aca-BBN(7-14) 15 mg/kg) was 1.58 ± 0.52 %ID/g. The tissue uptake at 1 h ([2]; male, athymic nude, PC-3 tumor uptake with RGD+BBN blocking, 1 h, 3.7 MBq, co-injected RGD 10 mg/kg and BBN 15 mg/kg) was 0.43 ± 0.08 %ID/g, the tissue to tissue ratio at 2 h ([2]; tumor/blood) was 8.1 ± 1.14 and the tissue to tissue ratio at 2 h ([2]; tumor/kidneys) was 1.44 ± 0.05. For the same molecule, the tissue to tissue ratio at 2 h ([2]; tumor/liver) was 6.43 ± 0.81, the tissue to tissue ratio at 2 h ([2]; tumor/muscle) was 10.5 ± 0.75 and the tissue uptake at 0.5 h [3] was 2.72 ± 0.8 %ID/g. It also gave a tissue uptake at 1 h [3] of 1.59 ± 0.65 %ID/g, a tissue uptake at 2 h [3] of 0.84 ± 0.22 %ID/g and a tissue uptake at 0.5 h ([4]; 0.5 h) of 2.96 ± 0.53 %ID/g. The tissue uptake at 1 h ([4]; 1 h) was 1.81 ± 0.34 %ID/g, the tissue uptake at 2 h ([4]; 2 h) was 0.91 ± 0.12 %ID/g and the Liver uptake ([5]; average of eight mice, 0.5 h) was 1.13±0.43 % ID/g. It also gave a Kidney uptake ([5]; average of eight mice, 2 h) of 0.74±0.19 % ID/g, a tissue uptake at 2 h ([5]; female, kidney) of 0.74 ± 0.19 %ID/g and a tissue uptake at 0.5 h ([5]; female, liver) of 1.13 ± 0.43 %ID/g. The tissue uptake at 0.5 h ([5]; blood) was 0.78 ± 0.37 %ID/g, the tissue uptake at 1 h ([5]; blood) was 0.41 ± 0.11 %ID/g and the tissue uptake at 2 h ([5]; blood) was 0.18 ± 0.02 %ID/g. It also gave a tissue uptake at 0.5 h ([5]; kidney) of 2.77 ± 0.78 %ID/g, a tissue uptake at 1 h ([5]; kidney) of 1.56 ± 0.32 %ID/g and a tissue uptake at 1 h ([5]; liver) of 0.56 ± 0.21 %ID/g. It also gave a tissue uptake at 2 h ([5]; liver) of 0.23 ± 0.07 %ID/g, a tissue uptake at 0.5 h ([5]; muscle) of 0.81 ± 0.23 %ID/g and a tissue uptake at 1 h ([5]; muscle) of 0.33 ± 0.17 %ID/g. The tissue uptake at 2 h ([5]; muscle) was 0.15 ± 0.05 %ID/g.
